# US11098055B2, “Ester ACC inhibitors and uses thereof” (Gilead Apollo, LLC, priority 2015, dated 2021)
# Assays:
# C. krusei ATCC 6258 = test: Anti-Fungal (Candida) Activity Assay, broth microtiter MIC; type: cell-based, Candida krusei; conditions: Pichia kudriavzevii, ATCC6258, 48 h, Table 3b (additional results); 3 replicates; MIC read at 48 h
# Summary of the method: (§1)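 Broth microdilution per CLSI M27-A3 in RPMI 1640 + MOPS, at a final inoculum of 2.5×10^3 CFU/mL. Compound DMSO stocks were diluted in water to a 128 μg/mL working solution. MIC was read visually against the growth control at 48 h.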
# [1] = system: C. parapsilosis ATCC 22019; test: as above; type: cell-based; conditions: Lodderomyces parapsilosis, ATCC22019, 48 h, Table 3b (additional results); 3 replicates; MIC read at 48 h
# Summary of the method: as §1
# C. albicans ATCC 90028 = test: as above; type: cell-based; conditions: ATCC90028, 48 h, Table 3b (additional results), 3 replicates, MIC read at 48 h
# Summary of the method: as §1
# Diplodia maydis (Dm) = test: Growth inhibition assay of fungal pathogens; type: cell-based; conditions: Stenocarpella maydis, 48 h, Table 4b, read-out: Concentration at 90% Inhibition Dm
# Summary of the method: (§2)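 Read-out was OD600 with visual scoring at 48 h, expressed as percent inhibition relative to wells containing 2% DMSO alone. Test wells held spores in 17% V8 liquid medium, with compound at final levels of either 50, 10, 2 ppm or 2, 0.4, 0.08 ppm.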
# Botrtyis cinerea (Bc) = test: Growth inhibition assay of fungal pathogens; type: cell-based; conditions: 48 h, Table 4b, read-out: Concentration at 90% Inhibition Bc
# Summary of the method: as §2
# [2] = system: Fusarium virguliforme (Fv); test: Growth inhibition assay of fungal pathogens; type: cell-based; conditions: 48 h, Table 4b, read-out: Concentration at 90% Inhibition Fv
# Summary of the method: as §2
# Septoria tritici (St) = test: Growth inhibition assay of fungal pathogens; type: cell-based; conditions: Zymoseptoria tritici, 48 h, Table 4b, read-out: Concentration at 90% Inhibition St
# Summary of the method: as §2
# [3] = system: Fusarium moniliforme (Fm); test: Growth inhibition assay of fungal pathogens; type: cell-based; conditions: Fusarium verticillioides, 48 h, Table 4b, read-out: Concentration at 90% Inhibition Fm
# Summary of the method: as §2
# Rhizoctonia solani (Rs) = test: Growth inhibition assay of fungal pathogens; type: cell-based; conditions: 48 h, Table 4b, read-out: Concentration at 90% Inhibition Rs
# Summary of the method: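 Spores, or mycelial plugs for Rhizoctonia, in 17% V8 medium (¼ PDB for plugs) were exposed to compound at final 50, 10 and 2 ppm or 2, 0.4 and 0.08 ppm, with 2% DMSO. Growth was read by OD600 with blank subtraction plus visual rating; percent inhibition at 48 h is relative to 2% DMSO control.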
# [4] = system: Collectotrichum graminicola (Cg); test: Growth inhibition assay of fungal pathogens; type: cell-based; conditions: 48 h, Table 4b, read-out: Concentration at 90% Inhibition Cg
# Summary of the method: as §2
# [5] = system: Phytophthora capsici (Pc); test: Growth inhibition assay of fungal pathogens; type: cell-based; conditions: 48 h, Table 4b, read-out: Concentration at 90% Inhibition Pc
# Summary of the method: as §2
SMILES,MIC (C. krusei ATCC 6258),MIC [1],MIC (C. albicans ATCC 90028),IC90 (Diplodia maydis (Dm)),IC90 (Botrtyis cinerea (Bc)),IC90 [2],IC90 (Septoria tritici (St)),IC90 [3],IC90 (Rhizoctonia solani (Rs)),IC90 [4],IC90 [5]
"CCOC(=O)c1sc2c(c1C)c(=O)n(C(C)(C)C(=O)NC(C)C)c(=O)n2C[C@H](OCC(C)(C)C#N)c1ccccc1OC [Compound I-38, ethyl (R)-1-(2-(2-cyano-2-methylpropoxy)-2-(2-methoxyphenyl)ethyl)-3-(1-(isopropylamino)-2-methyl-1-oxopropan-2-yl)-5-methyl-2,4-dioxo-1,2,3,4-tetrahydrothieno[2,3-d]pyrimidine-6-carboxylate]",> 4.1 µg/mL,2.1 to 4 µg/mL,0.25 to 1 µg/mL,2 µg/mL,0.4 µg/mL,2 µg/mL,≥ 50 µg/mL,0.08 µg/mL,2 µg/mL,2 µg/mL,≥ 50 µg/mL
"CCNC(=O)C(C)(C)n1c(=O)c2c(C)c(C(=O)OCC)sc2n(C[C@H](O)c2cc(F)ccc2OC)c1=O [Compound I-39, ethyl (R)-3-(1-(ethylamino)-2-methyl-1-oxopropan-2-yl)-1-(2-(5-fluoro-2-methoxyphenyl)-2-hydroxyethyl)-5-methyl-2,4-dioxo-1,2,3,4-tetrahydrothieno[2,3-d]pyrimidine-6-carboxylate]",0.25 to 1 µg/mL,2.1 to 4 µg/mL,2.1 to 4 µg/mL,≥ 50 µg/mL,10 µg/mL,2 µg/mL,≥ 50 µg/mL,2 µg/mL,0.08 µg/mL,≥ 50 µg/mL,≥ 50 µg/mL
"CCOC(=O)c1sc2c(c1C)c(=O)n(C(C)(C)C(=O)NC(C)C)c(=O)n2CCc1cc(F)ccc1OC [Compound I-40, ethyl 1-(5-fluoro-2-methoxyphenethyl)-3-(1-(isopropylamino)-2-methyl-1-oxopropan-2-yl)-5-methyl-2,4-dioxo-1,2,3,4-tetrahydrothieno[2,3-d]pyrimidine-6-carboxylate]",2.1 to 4 µg/mL,0.25 to 1 µg/mL,2.1 to 4 µg/mL,10 µg/mL,2 µg/mL,2 µg/mL,≥ 50 µg/mL,2 µg/mL,≥ 50 µg/mL,10 µg/mL,≥ 50 µg/mL
"CCNC(=O)[C@@H](C)n1c(=O)c2c(C)c(C(=O)OCC)sc2n(C[C@H](OCCC#N)c2cc(F)ccc2OC)c1=O [Compound I-41, ethyl 1-((R)-2-(2-cyanoethoxy)-2-(5-fluoro-2-methoxy-phenyl)ethyl)-3-((R)-1-(ethylamino)-1-oxopropan-2-yl)-5-methyl-2,4-dioxo-1,2,3,4-tetrahydrothieno[2,3-d]pyrimidine-6-carboxylate]",2.1 to 4 µg/mL,2.1 to 4 µg/mL,2.1 to 4 µg/mL,≥ 50 µg/mL,10 µg/mL,≥ 50 µg/mL,≥ 50 µg/mL,2 µg/mL,≥ 50 µg/mL,10 µg/mL,≥ 50 µg/mL
"CCNC(=O)[C@H](C)n1c(=O)c2c(C)c(C(=O)OCC)sc2n(C[C@H](OCCC#N)c2cc(F)ccc2OC)c1=O [Compound I-42, ethyl 1-((R)-2-(2-cyanoethoxy)-2-(5-fluoro-2-methoxyphenyl)ethyl)-3-((S)-1-(ethylamino)-1-oxopropan-2-yl)-5-methyl-2,4-dioxo-1,2,3,4-tetrahydrothieno[2,3-d]pyrimidine-6-carboxylate]",2.1 to 4 µg/mL,2.1 to 4 µg/mL,2.1 to 4 µg/mL,2 µg/mL,0.4 µg/mL,0.4 µg/mL,≥ 50 µg/mL,0.08 µg/mL,2 µg/mL,2 µg/mL,≥ 50 µg/mL
"CCOC(=O)c1sc2c(c1C)c(=O)n([C@H](C)C(=O)NC(C)C)c(=O)n2C[C@H](O)c1cc(F)ccc1OC [Compound I-43, ethyl 1-((R)-2-(5-fluoro-2-methoxyphenyl)-2-hydroxyethyl)-3-((R)-1-(isopropylamino)-1-oxopropan-2-yl)-5-methyl-2,4-dioxo-1,2,3,4-tetrahydrothieno[2,3-d]pyrimidine-6-carboxylate]",2.1 to 4 µg/mL,2.1 to 4 µg/mL,2.1 to 4 µg/mL,10 µg/mL,2 µg/mL,0.4 µg/mL,≥ 50 µg/mL,0.08 µg/mL,2 µg/mL,10 µg/mL,≥ 50 µg/mL
"CCOC(=O)c1sc2c(c1C)c(=O)n([C@@H](C)C(=O)NC(C)C)c(=O)n2C[C@H](O)c1cc(F)ccc1OC [Compound I-44, ethyl 1-((R)-2-(5-fluoro-2-methoxyphenyl)-2-hydroxyethyl)-3-((S)-1-(isopropylamino)-1-oxopropan-2-yl)-5-methyl-2,4-dioxo-1,2,3,4-tetrahydrothieno[2,3-d]pyrimidine-6-carboxylate]",2.1 to 4 µg/mL,2.1 to 4 µg/mL,2.1 to 4 µg/mL,≥ 50 µg/mL,10 µg/mL,10 µg/mL,≥ 50 µg/mL,≥ 50 µg/mL,≥ 50 µg/mL,≥ 50 µg/mL,≥ 50 µg/mL
